Measured values as given in patent publication US20230240297A1, “SELECTIVE HERBICIDES BASED ON SUBSTITUTED ISOXAZOLIN CARBOXAMIDES AND CYPROSULFAMIDE” (Bayer Aktiengesellschaft, priority 2020, published 2023).

Assays:
Assay type in all cases: in vivo, maize
ZEAMA Sileno [1] = experiment: Seed treatment with safener; post-emergence herbicide application; design: Reduction [Difference]: scale not given here; conditions: Final assessment; for Reduction [%] / Reduction [Difference]: Cyprosulfamide 0.5 g a.i./kg seed; for Reduction [Difference]: damage without safener - damage with safener; for HER effect + SAF (crop damage with safener): Cyprosulfamide seed treatment 0.5 g a.i./kg seed; for HER effect (crop damage, herbicide without safener): no safener
Summary of the method: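 Maize seeds slurry-coated with WP safener (g a.i./kg seed) or left untreated, sown in sandy loam and grown in greenhouse. WP herbicide sprayed post-emergence at BBCH11-13 in 300 l/ha water with wetting agent and adjuvants (e.g. Mero 1.5 l/ha, ammonium sulphate 2 kg/ha); means of at least 2 replicates.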

ZEAMA Sileno [2] = experiment: Seed treatment with safener; pre-emergence herbicide application; conditions: for Reduction [%] / Reduction [Difference]: cyprosulfamide 0.25 g a.i./kg seed; for HER effect + SAF: cyprosulfamide seed treatment 0.25 g a.i./kg seed; for HER effect: no safener
Experimental: For the safener seed treatment, sufficient seeds of the respective crops (spring wheat, TRZAS; spring barley, HORVS; maize, ZEAMA) were weighed into screw top glass bottles approximately twice the volume of the seeds.
The specified safeners, formulated as wettable powder (WP) were weighed out so that the specified rates (g a.i./kg seed) would be obtained, dissolved in water (1 ml water per 10 g of seeds), and added to the seeds to produce a slurry.
The bottles were capped and then placed in an overhead shaker (set at medium speed for ca. 60 minutes) so that the seeds were evenly coated with the slurry. The bottles were uncapped and the seeds were either placed on paper and dried for an interval of 3-4 hours prior to sowing, or directly sown. Seeds were placed in sandy loam soil in pots of a diameter of 7-8 cm, and covered with soil.
Pre-emergence application of the specified herbicides was done subsequently, on two sets of plants: • a) seed treatment with safener, as described above • b) no safener treatment
The herbicides were formulated as WP and was sprayed onto the soil surface as an aqueous suspension at an equivalent water application rate of 300 1/ha.
(§1) After application, the test plants were kept in the greenhouse under good growth conditions. At intervals up to 4 weeks after application (=28 days after treatment; DAT), % crop damage observed on the treated plants was scored visually in comparison to control plants that had not received any safener or herbicide treatment.
Values in the table below are mean values of at least 2 replicates.

ZEAMA Sileno [3] = experiment: Tank-mix; post-emergence, crop damage with and without safener; conditions: for HER effect + SAF / HER effect: Final assessment; for HER effect: no safener
Summary of the method: (§2)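 Crops in sandy loam in the greenhouse were sprayed at the 1–3-leaf stage, 2–3 weeks after sowing, with herbicide/safener combinations or the single actives at various dosages in 300 l/ha water. Injury was scored visually 1–3 weeks after treatment as % versus untreated plants (0% none, 100% complete kill).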

ZEAMA Sileno [4] = experiment: Treatment 1 day before (safener applied one day before herbicide, post-emergence); design: key to Reduction [Difference]: percentage points of visually scored % crop damage vs untreated control; conditions: for Reduction [%] / Reduction [Difference]: cyprosulfamide 100 g a.i./ha 1 day before; for HER effect + SAF: cyprosulfamide 100 g a.i./ha applied 1 day before; for HER effect + SAF / HER effect: Final assessment; for HER effect: no safener
Text: Seeds of crops (spring wheat, TRZAS; spring barley, HORVS; maize, ZEAMA) were placed in sandy loam soil in pots of a diameter of 7-8 cm, covered with soil, and cultivated in a greenhouse under good growth conditions until plants were at the 1-3 leaf stage (BBCH 11-13). For split safener and herbicide treatment, first the safener was applied followed by the herbicide treatment on the following day. The safener and herbicides were formulated as WP and sprayed onto the green parts of the plants as an aqueous suspension at an equivalent water application rate of 300 1/ha, with addition of wetting agent and adjuvants (e.g. Mero, 1.5 1/ha; ammonium sulphate, 2 kg/ha). An equivalent set of plants was treated with the herbicides but without the prior safener treatment.
as §1, with “10 and 21” for “At intervals up to 4 weeks after application (=28”, “treatment (DAT) with the herbicide,” for “treatment; DAT),”

ZEAMA Abraxas = experiment: Tank-mix; post-emergence, crop damage with and without safener; conditions: for Reduction [%] / Reduction [Difference]: cyprosulfamide 50 g a.i./ha; for HER effect + SAF / HER effect: Final assessment; for HER effect: no safener
Summary of the method: as §2

[5] = HER dose 40 g a.i./ha pre-emergence, 26 DAT
[6] = HER dose 80 g a.i./ha pre-emergence, 26 DAT
[7] = HER 8 g a.i./ha, cyprosulfamide 50 g a.i./ha
[8] = HER 32 g a.i./ha, cyprosulfamide 100 g a.i./ha
[9] = HER dose 8 g a.i./ha + cyprosulfamide 50 g a.i./ha tank-mix
[10] = HER dose 40 g a.i./ha pre-emergence, 14 DAT
[11] = HER dose 2 g a.i./ha + cyprosulfamide 50 g a.i./ha tank-mix

Row | SMILES | Reduction [%] (ZEAMA Sileno [1]; HER dose 8 g a.i./ha) | Reduction [Difference] (ZEAMA Sileno [1]; HER dose 8 g a.i./ha) | HER effect + SAF (crop damage with safener) (ZEAMA Sileno [1]; HER dose 8 g a.i./ha) [%] | HER effect (crop damage, herbicide without safener) (ZEAMA Sileno [1]; HER dose 8 g a.i./ha) [%] | Reduction [%] (ZEAMA Sileno [1]; HER dose 32 g a.i./ha) | Reduction [Difference] (ZEAMA Sileno [1]; HER dose 32 g a.i./ha) | HER effect + SAF (crop damage with safener) (ZEAMA Sileno [1]; HER dose 32 g a.i./ha) [%] | HER effect (crop damage, herbicide without safener) (ZEAMA Sileno [1]; HER dose 32 g a.i./ha) [%] | Reduction [%] (ZEAMA Sileno [2]; HER 40 g a.i./ha, 26 DAT) | Reduction [Difference] (ZEAMA Sileno [2]; HER 40 g a.i./ha, 26 DAT) | HER effect + SAF (ZEAMA Sileno [2]; [5]) [%] | HER effect (ZEAMA Sileno [2]; [5]) [%] | Reduction [%] (ZEAMA Sileno [4]; HER 32 g a.i./ha) | Reduction [Difference] (ZEAMA Sileno [4]; HER 32 g a.i./ha) | HER effect + SAF (ZEAMA Sileno [4]; HER dose 32 g a.i./ha) [%] | HER effect (ZEAMA Sileno [4]; HER dose 32 g a.i./ha) [%] | further results
1 | C=CC1(C(=O)NC2C=CC(C(=O)OC)C2)CC(c2cc(F)cc(F)c2)=NO1 (centres unmarked) [Example 1.26] | 74 | 42 | 15 | 57 | 71 | 67 | 27 | 94 | 70 | 35 | 15 | 50 |  |  |  |  | Reduction [%] (ZEAMA Sileno [2]; HER 80 g a.i./ha, 26 DAT): 57%; Reduction [Difference] (ZEAMA Sileno [2]; HER 80 g a.i./ha, 26 DAT): 40; HER effect + SAF (ZEAMA Sileno [2]; [6]): 30%; HER effect (ZEAMA Sileno [2]; [6]): 70%; Reduction [%] (ZEAMA Sileno [3]; [7]): 70%; Reduction [Difference] (ZEAMA Sileno [3]; [7]): 40; Reduction [%] (ZEAMA Sileno [3]; [8]): 71%; Reduction [Difference] (ZEAMA Sileno [3]; [8]): 67; HER effect + SAF (ZEAMA Sileno [3]; [9]): 17%; HER effect (ZEAMA Sileno [3]; HER dose 8 g a.i./ha): 57%; HER effect + SAF (ZEAMA Sileno [3]; HER dose 32 g a.i./ha + cyprosulfamide 100 g a.i./ha tank-mix): 27%; HER effect (ZEAMA Sileno [3]; HER dose 32 g a.i./ha): 94%
2 | C=CC1(C(=O)NC2COC(C(=O)OC)C2)CC(c2cc(F)cc(F)c2)=NO1 (mixture of isomers) [Example 1.68] | 74 | 73 | 25 | 98 | 69 | 68 | 30 | 98 | 58 | 55 | 40 | 95 |  |  |  |  | Reduction [%] (ZEAMA Sileno [1]; HER dose 2 g a.i./ha): 83%; Reduction [Difference] (ZEAMA Sileno [1]; HER dose 2 g a.i./ha): 50; HER effect + SAF (crop damage with safener) (ZEAMA Sileno [1]; HER dose 2 g a.i./ha): 10%; HER effect (crop damage, herbicide without safener) (ZEAMA Sileno [1]; HER dose 2 g a.i./ha): 60%; Reduction [%] (ZEAMA Sileno [2]; HER 40 g a.i./ha, 14 DAT): 41%; Reduction [Difference] (ZEAMA Sileno [2]; HER 40 g a.i./ha, 14 DAT): 38; HER effect + SAF (ZEAMA Sileno [2]; [10]): 55%; HER effect (ZEAMA Sileno [2]; [10]): 93%; Reduction [%] (ZEAMA Sileno [3]; HER 2 g a.i./ha, cyprosulfamide 50 g a.i./ha): 67%; Reduction [Difference] (ZEAMA Sileno [3]; HER 2 g a.i./ha, cyprosulfamide 50 g a.i./ha, damage without safener - damage with safener): 40; HER effect + SAF (ZEAMA Sileno [3]; [11]): 20%; HER effect (ZEAMA Sileno [3]; HER dose 2 g a.i./ha, 0% = no injury, 100% = complete kill): 60%; Reduction [%] (ZEAMA Sileno [4]; HER 8 g a.i./ha): 69%; Reduction [Difference] (ZEAMA Sileno [4]; HER 8 g a.i./ha): 68; HER effect + SAF (ZEAMA Sileno [4]; HER dose 8 g a.i./ha): 30%; HER effect (ZEAMA Sileno [4]; HER dose 8 g a.i./ha): 98%
3 | COC(=O)C1C=CC(NC(=O)C2(C)CC(c3cc(F)cc(Cl)c3)=NO2)C1 (centres unmarked) [Example 1.21] |  |  |  |  | 71 | 25 | 10 | 35 |  |  |  |  | 57 | 20 | 15 | 35 | Reduction [%] (ZEAMA Abraxas; HER 8 g a.i./ha): 71%; Reduction [Difference] (ZEAMA Abraxas; HER 8 g a.i./ha): 25; HER effect + SAF (ZEAMA Abraxas; [9]): 10%; HER effect (ZEAMA Abraxas; HER dose 8 g a.i./ha): 35%
4 | COC(=O)C1C=CC(NC(=O)C2(C)CC(c3cc(F)cc(F)c3)=NO2)C1 (centres unmarked) [Example 1.19] | 75 | 30 | 10 | 40 | 75 | 60 | 20 | 80 |  |  |  |  | 88 | 70 | 10 | 80 | Reduction [%] (ZEAMA Abraxas; HER 2 g a.i./ha): 80%; Reduction [Difference] (ZEAMA Abraxas; HER 2 g a.i./ha): 60; HER effect + SAF (ZEAMA Abraxas; [11]): 15%; HER effect (ZEAMA Abraxas; HER dose 2 g a.i./ha): 75%
